Data as given in ChEMBL document CHEMBL4043062, “Recent developments in the isolation, biological function, biosynthesis, and synthesis of phenazine natural products” (Bioorg Med Chem, 2017).
In brackets after ≈: the same amount, converted by molar mass.

Test system: Mycobacterium tuberculosis
Assay: Antitubercular activity against rifampicin-resistant Mycobacterium tuberculosis ATCC 35338 harboring His-526-Tir mutation in rpoB gene after 7 days by Resazurin microtitre assay
Assay type: functional

How did the MIC turn out when `C=CCC1Cc2c(c3ccccc3c3nc4ccccc4nc23)OC1(C)C` (stereo unspecified) was run?
The MIC was 2.2 µM (≈ 0.78 µg/mL).
